# Target: T1, human HSP90α (Homo sapiens, UniProt P07900)
# T1 construct: host or cells: E. coli
# Assay: radioligand filter binding test, competition with [3H]17AAG for HSP90
# Settings: recombinant human HSP90α, [3H]17AAG 0.08 μM, 22° C., 30 min
# Source text: The binding of geldanamycin or 17-allylamino-17-demethoxygeldanamycin (17AAG) to HSP90 and competitive inhibition thereof can be utilised in order to determine the inhibitory activity of the compounds according to the invention (Carreras et al. 2003, Chiosis et al. 2002).
# In the specific case, a radioligand filter binding test is used. The radioligand used here is tritium-labelled 17-allylaminogeldanamycin, [3H]17AAG. This filter binding test allows a targeted search for inhibitors which interfere with the ATP binding site.
# Recombinant human HSP90α (E. coli expressed, 95% purity); [3H]17AAG (17-allylaminogeldanamycin, [allylamino-2,3-^3H. Specific activity: 1.11×10^12 Bq/mmol (Moravek, MT-1717);
# HEPES filter buffer (50 mM HEPES, pH 7.0, 5 mM MgCl2, BSA 0.01%) Multiscreen FB (1 μm) filter plate (Millipore, MAFBNOB 50).
# The 96-well microtitre filter plates are firstly irrigated and coated with 0.1% of polyethylenimine.
# The test is carried out under the following conditions: • Reaction temperature 22° C. • Reaction time: 30 min., shaking at 800 rpm • Test volume: 50 μl • Final Concentrations: • 50 mM HEPES HCl, pH 7.0, 5 mM MgCl2, 0.01% (w/v) BSA • HSP90:1.5 μg/assay • [3H]17AAG: 0.08 μM.
# At the end of the reaction, the supernatant in the filter plate is removed by suction with the aid of a vacuum manifold (Multiscreen Separation System, Millipore), and the filter is washed twice.
# The filter plates are then measured in a beta counter (Microbeta, Wallac) with scintillator (Microscint 20, Packard).
# “% of control” is determined from the “counts per minutes” values and the IC-50 value of a compound is calculated therefrom.
row,Structure (SMILES),IC50 [µM]
1,"COc1ccc(-c2c(C#N)c(N)nc3sc(C(N)=O)c(N)c23)cc1NC(=O)c1ccc(C(F)(F)F)cc1 [Compound A35, 2-aminocarbonyl-3,6-diamino-5-cyano-4-[4-methoxy-3-(4-trifluoromethylbenzoylamino)phenyl]thieno[2,3-b]pyridine]",5.9
2,"COc1ccc(-c2c(C#N)c(N)nc3sc(C(N)=O)c(N)c23)cc1NC(=O)c1ccccc1C(F)(F)F [Compound A36, 2-aminocarbonyl-3,6-diamino-5-cyano-4-[4-methoxy-3-(2-trifluoromethylbenzoylamino)phenyl]thieno[2,3-b]pyridine]",11
3,"COc1ccc(-c2c(C#N)c(N)nc3sc(C(N)=O)c(N)c23)cc1NC(=O)c1ccncc1 [Compound A37, 2-aminocarbonyl-3,6-diamino-5-cyano-4-[4-methoxy-3-(pyridin-4-ylcarbonylamino)phenyl]thieno[2,3-b]pyridine]",1.9
4,"COc1ccc(-c2c(C#N)c(N)nc3sc(C(N)=O)c(N)c23)cc1NC(=O)C(C)C [Compound A38, 2-aminocarbonyl-3,6-diamino-5-cyano-4-[4-methoxy-3-(prop-2-ylcarbonylamino)phenyl]thieno[2,3-b]pyridine]",5.5

# — patent US7989625B2, “Thienopyridines” (Merck Patent GmbH, priority 2005, dated 2011)
